{"source": "patent US10889553B2", "about": "“Asymmetric triazole benzamide derivatives and the compositions and methods of treatment regarding the same” (NysnoBio Ireland DAC, priority 2017, dated 2021)", "key": {"[1]": {"assay": "Oral bioavailability (PO) and pharmacokinetics assay", "assay_type": "in vivo, mice", "details": "mouse", "experimental": "The pharmacokinetics and oral bioavailability of various compounds was evaluated following IV or PO administration to fasted male Sprague-Dawley […] (N=3/route/dose). […] For IV dosing, each compound was formulated in 10% DMA/15% Solutol/75% HPβ-CD (20%) as a 1 mg/mL solution for IV (3 mg/kg), for IP (5 mg/kg) and for PO (10 mg/kg) administrations.\nBlood samples (0.250 mL) were collected into EDTA tubes then processed to generate plasma samples. Blood samples were collected at pre-dose, 0.083, 0.25, 0.5, 1, 2, 4, 8 and 24 hours post-dose administration. Plasma concentrations of each compound were determined using LC-MS/MS with a lower limit of quantitation of 1.0 ng/mL. The pharmacokinetic parameters were determined by non-compartmental methods using WinNonlin.\nThe pharmacokinetic parameters of each compound were determined by non-compartmental analysis (Model 201 for IV administration and Model 200 for PO administration) using WinNonlin Version 6.4 (Pharsight, Mountain View, Calif.). The area under the curve from the time of dosing to the last measurable concentration, AUC(0-t), was calculated by the linear trapezoidal rule. The area under the concentration-time curve extrapolated to infinity, AUC(0-∞), was calculated as follows: AUC(0-∞)=AUC(0-t)+Clast/k\nWhere Clast is the last measurable concentration and k is the first order rate constant associated with the terminal elimination phase, estimated by linear regression of log concentration versus time. The half-life (T1/2) of the terminal elimination phase was estimated based on the following equation: T1/2=0.693/k\nK was determined based on at least three timepoints with R^2≥0.9. Additional parameters were calculated as follows: CL=Dose/AUC(0-∞)\nWhere CL is the clearance of the compound of the disclosure in L/hr/kg, Dose is the administered dose in mg/kg. Mean residence time (MRT) was calculated as follows: MRT=AUMC(0-∞)/AUC(0-∞)\nWhere area under the first moment curve extrapolated to infinity (AUMC0-∞)) was calculated as follows: AUMC(0-∞)=AUMClast+tlast*[…]+Clast/k^2\nThe steady state volume of distribution (Vss) was calculated as follows: Vss=CL×MRT.\nThe oral bioavailability based on AUC(0-t) was calculated as follows: F(%)=AUCPO/AUCIV×DoseIV/DosePO×100. For IV administration, the initial concentration, Co is reported and is an extrapolated value. For PO administration, the maximum concentration, Cmax is report and is an observed value."}, "5-HT transporter (h)": {"target": "5-HT transporter (h) (Homo sapiens, UniProt P31645)", "sequence (P31645 whole entry)": "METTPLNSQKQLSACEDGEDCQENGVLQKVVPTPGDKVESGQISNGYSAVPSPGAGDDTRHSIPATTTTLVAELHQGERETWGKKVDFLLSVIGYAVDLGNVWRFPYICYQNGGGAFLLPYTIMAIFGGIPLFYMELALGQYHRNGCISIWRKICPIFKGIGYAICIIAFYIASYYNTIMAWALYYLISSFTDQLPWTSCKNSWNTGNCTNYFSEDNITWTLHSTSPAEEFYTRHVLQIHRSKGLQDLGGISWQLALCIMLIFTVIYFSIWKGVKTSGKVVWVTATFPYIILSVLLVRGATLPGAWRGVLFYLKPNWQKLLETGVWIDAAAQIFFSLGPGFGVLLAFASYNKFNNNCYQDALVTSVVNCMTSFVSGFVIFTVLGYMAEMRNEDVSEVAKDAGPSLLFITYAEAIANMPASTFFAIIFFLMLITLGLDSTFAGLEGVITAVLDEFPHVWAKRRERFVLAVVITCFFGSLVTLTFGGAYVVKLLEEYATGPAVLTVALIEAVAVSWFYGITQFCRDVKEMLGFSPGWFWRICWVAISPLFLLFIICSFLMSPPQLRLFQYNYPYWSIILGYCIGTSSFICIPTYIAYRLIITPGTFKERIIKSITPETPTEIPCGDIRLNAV", "assay": "Selectivity screen, radioligand displacement", "assay_type": "binding", "details": "read-out: % Inhib 5-HT transporter (h)", "from_the_text": "(§1) If the % inhibition is less than 50%, the test compounds is consider to have no effect."}, "5-HT2A (h)": {"target": "5-HT2A (h) (Homo sapiens, UniProt P28223)", "assay": "Selectivity screen, radioligand displacement", "assay_type": "binding", "details": "read-out: % Inhib 5-HT2A (h)", "from_the_text": "as §1"}, "5-HT3 (h)": {"target": "5-HT3 (h) (Homo sapiens, UniProt P46098)", "sequence (P46098 24-478)": "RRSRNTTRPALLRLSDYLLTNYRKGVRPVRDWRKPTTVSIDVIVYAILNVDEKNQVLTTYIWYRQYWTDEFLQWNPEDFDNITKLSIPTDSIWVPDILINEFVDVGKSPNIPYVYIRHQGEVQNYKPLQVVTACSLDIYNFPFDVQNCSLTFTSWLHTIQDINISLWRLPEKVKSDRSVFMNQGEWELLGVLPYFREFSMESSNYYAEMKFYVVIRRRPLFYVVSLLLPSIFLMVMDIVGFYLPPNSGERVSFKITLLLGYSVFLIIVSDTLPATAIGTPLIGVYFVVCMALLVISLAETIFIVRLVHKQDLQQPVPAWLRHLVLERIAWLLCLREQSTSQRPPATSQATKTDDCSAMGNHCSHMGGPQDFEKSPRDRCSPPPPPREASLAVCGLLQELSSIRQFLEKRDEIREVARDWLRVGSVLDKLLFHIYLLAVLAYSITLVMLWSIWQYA", "assay": "Selectivity screen, radioligand displacement", "assay_type": "binding", "details": "read-out: % Inhib 5-HT3 (h)", "from_the_text": "as §1"}, "CCK1 (CCKA) (h)": {"target": "CCK1 (CCKA) (h) (Homo sapiens, UniProt P32238)", "sequence (P32238 whole entry)": "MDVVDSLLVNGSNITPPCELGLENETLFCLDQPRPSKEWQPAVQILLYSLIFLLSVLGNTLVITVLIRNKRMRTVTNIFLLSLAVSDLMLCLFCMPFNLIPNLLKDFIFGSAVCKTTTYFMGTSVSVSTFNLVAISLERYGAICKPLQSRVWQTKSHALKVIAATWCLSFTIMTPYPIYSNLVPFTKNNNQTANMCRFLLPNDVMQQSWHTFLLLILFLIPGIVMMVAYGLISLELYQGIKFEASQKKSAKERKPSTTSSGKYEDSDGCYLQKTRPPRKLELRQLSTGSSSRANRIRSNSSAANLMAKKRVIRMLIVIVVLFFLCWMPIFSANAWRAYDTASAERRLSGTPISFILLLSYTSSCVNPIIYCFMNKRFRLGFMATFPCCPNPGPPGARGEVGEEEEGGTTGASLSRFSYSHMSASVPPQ", "assay": "Selectivity screen, radioligand displacement", "assay_type": "binding", "details": "read-out: % Inhib CCK1 (CCKA) (h)", "from_the_text": "as §1"}, "COX1(h)": {"target": "COX1(h) (Homo sapiens, UniProt P23219)", "assay": "Selectivity screen, radioligand displacement", "assay_type": "binding", "details": "read-out: % Inhib COX1(h)", "from_the_text": "as §1"}, "D1 (h)": {"target": "D1 (h) (Homo sapiens, UniProt P21728)", "sequence (P21728 whole entry)": "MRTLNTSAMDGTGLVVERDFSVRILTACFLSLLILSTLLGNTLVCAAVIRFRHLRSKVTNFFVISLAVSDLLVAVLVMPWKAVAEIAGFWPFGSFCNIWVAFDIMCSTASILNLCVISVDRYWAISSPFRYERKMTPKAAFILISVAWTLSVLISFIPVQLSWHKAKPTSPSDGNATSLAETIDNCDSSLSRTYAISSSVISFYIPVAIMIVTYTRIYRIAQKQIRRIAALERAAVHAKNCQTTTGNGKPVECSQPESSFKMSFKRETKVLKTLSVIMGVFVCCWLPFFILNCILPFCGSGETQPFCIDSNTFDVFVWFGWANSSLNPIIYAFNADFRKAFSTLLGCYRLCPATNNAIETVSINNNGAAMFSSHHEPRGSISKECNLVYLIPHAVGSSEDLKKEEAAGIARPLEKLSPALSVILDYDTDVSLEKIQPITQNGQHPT", "assay": "Selectivity screen, radioligand displacement", "assay_type": "binding", "from_the_text": "as §1"}, "D2S (h)": {"target": "D2S (h) (Homo sapiens, UniProt P14416)", "assay": "Selectivity screen, radioligand displacement", "assay_type": "binding", "details": "read-out: % Inhib D2S (h)", "from_the_text": "as §1"}, "ETA (h)": {"target": "ETA (h) (Homo sapiens, UniProt P25101)", "sequence (P25101 21-427)": "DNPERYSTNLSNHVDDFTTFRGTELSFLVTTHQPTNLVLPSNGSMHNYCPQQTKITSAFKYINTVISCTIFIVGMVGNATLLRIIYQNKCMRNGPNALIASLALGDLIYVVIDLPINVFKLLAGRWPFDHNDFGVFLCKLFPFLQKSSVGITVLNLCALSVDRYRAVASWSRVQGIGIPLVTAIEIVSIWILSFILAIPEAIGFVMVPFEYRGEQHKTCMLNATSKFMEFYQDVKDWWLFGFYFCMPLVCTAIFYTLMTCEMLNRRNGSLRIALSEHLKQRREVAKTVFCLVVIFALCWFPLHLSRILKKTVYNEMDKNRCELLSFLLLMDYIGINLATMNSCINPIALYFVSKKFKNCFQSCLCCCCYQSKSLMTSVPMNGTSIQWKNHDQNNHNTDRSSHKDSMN", "assay": "Selectivity screen, radioligand displacement", "assay_type": "binding", "details": "read-out: % Inhib ETA (h)", "from_the_text": "as §1"}, "KV channel": {"test_system": "KV channel", "assay": "Selectivity screen, radioligand displacement", "assay_type": "binding", "details": "Compound 42 at 10 μM", "from_the_text": "as §1"}, "MAO-A": {"target": "MAO-A (Rattus norvegicus, UniProt P21396)", "assay": "Selectivity screen, radioligand displacement", "assay_type": "binding", "details": "read-out: % Inhib MAO-A", "from_the_text": "as §1"}, "PDE3A (h)": {"target": "PDE3A (h) (Homo sapiens, UniProt Q14432)", "sequence (Q14432 whole entry)": "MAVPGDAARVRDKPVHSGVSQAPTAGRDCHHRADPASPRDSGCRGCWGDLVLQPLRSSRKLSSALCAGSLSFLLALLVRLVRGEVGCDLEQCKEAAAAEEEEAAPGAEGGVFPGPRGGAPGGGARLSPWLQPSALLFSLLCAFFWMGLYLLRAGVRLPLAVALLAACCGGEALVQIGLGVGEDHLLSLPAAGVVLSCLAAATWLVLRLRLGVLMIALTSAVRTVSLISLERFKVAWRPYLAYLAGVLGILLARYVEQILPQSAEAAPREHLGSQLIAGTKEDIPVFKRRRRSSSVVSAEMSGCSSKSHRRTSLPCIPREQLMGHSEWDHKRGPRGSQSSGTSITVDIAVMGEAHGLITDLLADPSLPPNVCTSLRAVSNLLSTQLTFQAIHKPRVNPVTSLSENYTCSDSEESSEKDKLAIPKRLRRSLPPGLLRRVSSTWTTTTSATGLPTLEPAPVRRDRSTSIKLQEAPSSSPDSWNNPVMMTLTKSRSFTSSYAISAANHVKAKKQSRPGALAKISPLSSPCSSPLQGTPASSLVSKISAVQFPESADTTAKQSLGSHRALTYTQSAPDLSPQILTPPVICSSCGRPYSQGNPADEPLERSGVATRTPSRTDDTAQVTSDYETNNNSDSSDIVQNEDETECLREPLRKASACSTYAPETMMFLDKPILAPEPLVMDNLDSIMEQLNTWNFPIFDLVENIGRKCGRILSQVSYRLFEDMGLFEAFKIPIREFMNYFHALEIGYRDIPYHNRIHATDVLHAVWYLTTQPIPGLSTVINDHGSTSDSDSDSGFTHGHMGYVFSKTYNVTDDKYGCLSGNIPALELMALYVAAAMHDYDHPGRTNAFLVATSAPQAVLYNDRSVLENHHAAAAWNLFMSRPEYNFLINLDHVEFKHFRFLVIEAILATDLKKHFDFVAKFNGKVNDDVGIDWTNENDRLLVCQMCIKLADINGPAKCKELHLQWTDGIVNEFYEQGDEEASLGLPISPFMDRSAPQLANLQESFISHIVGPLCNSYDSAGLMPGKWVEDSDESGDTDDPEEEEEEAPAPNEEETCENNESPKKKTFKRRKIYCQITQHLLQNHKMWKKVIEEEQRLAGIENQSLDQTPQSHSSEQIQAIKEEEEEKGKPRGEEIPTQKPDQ", "assay": "Selectivity screen, radioligand displacement", "assay_type": "binding", "details": "read-out: % Inhib PDE3A (h)", "from_the_text": "as §1"}, "PDE4D2 (h)": {"target": "PDE4D2 (h) (Homo sapiens, UniProt Q08499)", "assay": "Selectivity screen, radioligand displacement", "assay_type": "binding", "details": "read-out: % Inhib PDE4D2 (h)", "from_the_text": "as §1"}, "V1a (h)": {"target": "V1a (h) (Homo sapiens, UniProt P37288)", "assay": "Selectivity screen, radioligand displacement", "assay_type": "binding", "details": "read-out: % Inhib V1a (h)", "from_the_text": "as §1"}, "acetylcholinesterase (h)": {"target": "acetylcholinesterase (h) (Homo sapiens, UniProt P22303)", "assay": "Selectivity screen, radioligand displacement", "assay_type": "binding", "details": "read-out: % Inhib acetylcholinesterase (h)", "from_the_text": "as §1"}, "alpha 1A (h)": {"target": "alpha 1A (h) (Homo sapiens, UniProt P35348)", "assay": "Selectivity screen, radioligand displacement", "assay_type": "binding", "details": "read-out: % Inhib alpha 1A (h)", "from_the_text": "as §1"}, "beta 1 (h)": {"target": "beta 1 (h) (Homo sapiens, UniProt P08588)", "sequence (P08588 whole entry)": "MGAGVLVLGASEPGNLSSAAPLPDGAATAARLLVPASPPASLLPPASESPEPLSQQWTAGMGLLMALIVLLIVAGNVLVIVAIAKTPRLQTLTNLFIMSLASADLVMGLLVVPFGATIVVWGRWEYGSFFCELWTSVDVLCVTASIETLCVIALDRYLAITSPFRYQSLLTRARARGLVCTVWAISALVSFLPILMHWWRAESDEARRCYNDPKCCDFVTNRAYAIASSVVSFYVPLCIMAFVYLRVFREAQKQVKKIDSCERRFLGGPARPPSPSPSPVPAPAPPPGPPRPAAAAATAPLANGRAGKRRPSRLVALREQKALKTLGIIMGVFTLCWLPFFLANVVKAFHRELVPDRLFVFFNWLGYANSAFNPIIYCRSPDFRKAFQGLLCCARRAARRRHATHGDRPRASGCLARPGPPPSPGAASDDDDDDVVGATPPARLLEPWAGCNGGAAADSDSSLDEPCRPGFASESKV", "assay": "Selectivity screen, radioligand displacement", "assay_type": "binding", "details": "read-out: % Inhib beta 1 (h)", "from_the_text": "as §1"}, "dopamine transporter (h)": {"target": "dopamine transporter (h) (Homo sapiens, UniProt Q01959)", "sequence (Q01959 whole entry)": "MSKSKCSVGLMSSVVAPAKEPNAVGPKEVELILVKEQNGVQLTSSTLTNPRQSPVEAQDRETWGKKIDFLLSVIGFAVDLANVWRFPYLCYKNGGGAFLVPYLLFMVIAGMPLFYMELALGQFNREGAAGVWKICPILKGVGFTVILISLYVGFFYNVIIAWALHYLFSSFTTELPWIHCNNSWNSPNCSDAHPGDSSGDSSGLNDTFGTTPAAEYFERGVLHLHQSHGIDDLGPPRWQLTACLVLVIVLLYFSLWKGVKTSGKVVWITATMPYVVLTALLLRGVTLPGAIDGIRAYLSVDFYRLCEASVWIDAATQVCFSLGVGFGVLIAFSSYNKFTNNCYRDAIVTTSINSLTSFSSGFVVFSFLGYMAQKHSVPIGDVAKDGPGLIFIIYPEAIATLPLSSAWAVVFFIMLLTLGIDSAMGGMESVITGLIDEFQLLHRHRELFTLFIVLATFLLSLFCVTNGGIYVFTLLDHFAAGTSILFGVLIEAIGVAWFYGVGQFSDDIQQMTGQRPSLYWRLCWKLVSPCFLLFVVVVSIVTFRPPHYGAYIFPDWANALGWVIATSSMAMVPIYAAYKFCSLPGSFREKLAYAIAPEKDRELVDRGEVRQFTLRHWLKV", "assay": "Selectivity screen, radioligand displacement", "assay_type": "binding", "details": "read-out: % Inhib dopamine transporter (h)", "from_the_text": "as §1"}, "mu (MOP) (h)": {"target": "mu (MOP) (h) (Homo sapiens, UniProt P35372)", "sequence (P35372 whole entry)": "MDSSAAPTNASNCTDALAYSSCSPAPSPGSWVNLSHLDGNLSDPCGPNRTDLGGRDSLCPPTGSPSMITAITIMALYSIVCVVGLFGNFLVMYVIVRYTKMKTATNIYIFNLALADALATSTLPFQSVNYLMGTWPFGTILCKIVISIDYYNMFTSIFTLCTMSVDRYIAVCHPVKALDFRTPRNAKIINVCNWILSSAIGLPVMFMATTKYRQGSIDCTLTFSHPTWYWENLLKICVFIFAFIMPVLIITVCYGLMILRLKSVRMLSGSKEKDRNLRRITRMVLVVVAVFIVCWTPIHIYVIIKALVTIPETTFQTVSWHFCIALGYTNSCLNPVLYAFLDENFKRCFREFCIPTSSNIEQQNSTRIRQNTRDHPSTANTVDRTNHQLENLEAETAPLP", "assay": "Selectivity screen, radioligand displacement", "assay_type": "binding", "details": "read-out: % Inhib mu (MOP) (h)", "from_the_text": "as §1"}, "[2]": {"details": "male, Sprague-Dawley, plasma, IP (5 mg/kg)"}, "[3]": {"details": "male, Sprague-Dawley, plasma, IV bolus (3 mg/kg)"}, "[4]": {"details": "male, Sprague-Dawley, plasma, PO (10 mg/kg)"}}, "note": "Like-named read-outs stand apart in the source and are kept apart here."}
{"smiles": "Cc1ccccc1C(=O)Nc1nc(NC(=O)c2ccccc2C)n(-c2ccc(OC(F)(F)F)cc2)n1", "note": "[Compound 42, N,N′-(1-(4-(trifluoromethoxy)phenyl)-1H-1,2,4-triazole-3,5-diyl)bis(2-methylbenzamide)]", "values": [{"measurement": "bioavailability", "setting": "[1]; male, Sprague-Dawley, plasma, intraperitoneal, 5 mg/kg, IP (5 mg/kg) vs IV, read-out: F (%)", "result": 50.3, "unit": "%"}, {"measurement": "half-life", "setting": "[1]; male, Sprague-Dawley, plasma, ip, 5 mg/kg, IP (5 mg/kg)", "result": 47, "unit": "h"}, {"measurement": "half-life", "setting": "[1]; male, Sprague-Dawley, plasma, iv, 3 mg/kg", "result": 16, "unit": "h"}, {"measurement": "half-life", "setting": "[1]; male, Sprague-Dawley, plasma, iv, 3 mg/kg, IV bolus (3 mg/kg)", "result": 16.4, "unit": "h"}, {"measurement": "Vd", "setting": "[1]; male, Sprague-Dawley, plasma, iv, 3 mg/kg, IV bolus (3 mg/kg), read-out: Vss", "result": 1.3, "unit": "L/kg"}, {"measurement": "bioavailability", "setting": "[1]; male, Sprague-Dawley, plasma, oral, 10 mg/kg, PO (10 mg/kg) vs IV, read-out: F (%) oral bioavailability", "result": 21, "unit": "%"}, {"measurement": "half-life", "setting": "[1]; male, Sprague-Dawley, plasma, po, 10 mg/kg, PO (10 mg/kg)", "result": 25, "unit": "h"}, {"measurement": "AUC(0-t)", "setting": "[1]; [2]", "result": 21500, "unit": "ng·h/mL"}, {"measurement": "Cmax", "setting": "[1]; [2]", "result": 1400, "unit": "ng/mL"}, {"measurement": "Tmax", "setting": "[1]; [2]", "result": 1.33, "unit": "h"}, {"measurement": "AUC(0-t)", "setting": "[1]; [3]", "result": 25700, "unit": "ng·h/mL"}, {"measurement": "clearance", "setting": "[1]; [3]", "result": 1.49, "unit": "mL/min/kg"}, {"measurement": "C0", "setting": "[1]; male, Sprague-Dawley, plasma, IV bolus (3 mg/kg), extrapolated value", "result": 40500, "unit": "ng/mL"}, {"measurement": "AUC(0-t)", "setting": "[1]; [4]", "result": 18400, "unit": "ng·h/mL"}, {"measurement": "Cmax", "setting": "[1]; [4]", "result": 1060, "unit": "ng/mL"}, {"measurement": "Tmax", "setting": "[1]; [4]", "result": 3.67, "unit": "h"}, {"measurement": "Vss", "setting": "[1]; IV bolus (3 mg/kg), 3 mg/kg", "result": 1.32, "unit": "L/kg"}, {"measurement": "IV clearance", "setting": "[1]; IV, in words", "result": "reasonable"}, {"measurement": "F (%) oral bioavailability", "setting": "[1]; PO (10 mg/kg) vs IV, 10 mg/kg", "result": 21.4, "unit": "%"}, {"measurement": "inhibition at 10 µM", "setting": "5-HT transporter (h)", "result": 10, "unit": "%"}, {"measurement": "inhibition at 10 µM", "setting": "5-HT2A (h)", "result": 4, "unit": "%"}, {"measurement": "inhibition at 10 µM", "setting": "5-HT3 (h)", "result": "< 1", "unit": "%"}, {"measurement": "inhibition at 10 µM", "setting": "CCK1 (CCKA) (h)", "result": "< 1", "unit": "%"}, {"measurement": "inhibition at 10 µM", "setting": "COX1(h)", "result": 19, "unit": "%"}, {"measurement": "inhibition at 10 µM", "setting": "D1 (h)", "result": "< 1", "unit": "%"}, {"measurement": "inhibition at 10 µM", "setting": "D2S (h)", "result": "< 1", "unit": "%"}, {"measurement": "inhibition at 10 µM", "setting": "ETA (h)", "result": "< 1", "unit": "%"}, {"measurement": "% Inhib KV channel", "setting": "KV channel", "result": 1, "unit": "%"}, {"measurement": "inhibition at 10 µM", "setting": "MAO-A", "result": 4, "unit": "%"}, {"measurement": "inhibition at 10 µM", "setting": "PDE3A (h)", "result": 13, "unit": "%"}, {"measurement": "inhibition at 10 µM", "setting": "PDE4D2 (h)", "result": 35, "unit": "%"}, {"measurement": "inhibition at 10 µM", "setting": "V1a (h)", "result": 5, "unit": "%"}, {"measurement": "inhibition at 10 µM", "setting": "acetylcholinesterase (h)", "result": 1, "unit": "%"}, {"measurement": "inhibition at 10 µM", "setting": "alpha 1A (h)", "result": 16, "unit": "%"}, {"measurement": "inhibition at 10 µM", "setting": "beta 1 (h)", "result": "< 1", "unit": "%"}, {"measurement": "inhibition at 10 µM", "setting": "dopamine transporter (h)", "result": 13, "unit": "%"}, {"measurement": "inhibition at 10 µM", "setting": "mu (MOP) (h)", "result": 6, "unit": "%"}]}
